Data: patent EP4458916A1, “PHOTOCATALYTICALLY ACTIVE COATING COMPOSITION, METHOD FOR THE PRODUCTION THEREOF AND USE THEREOF” (priority 2023, dated 2024)

Tests used:
[1] = Immersion test: binding / wash-out of photocatalysts from SolGel coatings (1 h deionised water, UV-VIS signal loss); assay type: physicochemical; conditions: Rezeptur 5 coating on glass, dye 10 bis 40 mM; 1 h deionised water pH 6 ± 1, 22 ± 3 °C; relative UV-VIS signal loss at absorption maximum
Protocol: Für alle Untersuchungen wurden nach Beispiel 8 beschichtete Glasträger verwendet.
Um das Auswaschen der verschiedenen Farbstoffe in den Sol-Gel-Beschichtungen zu beurteilen wurde ein Immersionstest in vollentsalztem Wasser mit einem pH-Wert von (6 ± 1) und einer Wassertemperatur von (22 ± 3) °C für eine Stunde durchgeführt. Dazu wurden zunächst Schichten (Rezeptur 5, Beispiel 4, aufgefüllt mit 3,0 mL 2-Propanol; sh. Tabelle 3) mit erhöhter Farbstoffkonzentration (10 bis 40 mM; um die notwendige Auflösung bei der dünnen Schicht zu erreichen) auf Glas-Objektträgern erzeugt. Diese wurden nach dem Ablüften bei Raumtemperatur (30 min) eine Stunde bei 60°C nachgehärtet. Anschließend wurden die Schichten direkt im UV-VIS-Spektrometer vermessen. Die Ausgangswerte (Absorptionsmaximum des jeweiligen Farbstoffs) sollten dabei zwischen 0,05 A.U. und 1,50 A.U. liegen.
Nach einer Stunde in VE-Wasser wurden die Prüfkörper getrocknet und erneut gemessen. Aus den beiden Messungen wurde ein relativer Signalverlust in Prozent bei dem farbstoffspezifischen Absorptionsmaximum bestimmt.
Dieser Immersionstest diente dazu, das Auswaschverhalten verschiedener Farbstoffe aus Beschichtungssystemen zu beurteilen. Weiter soll er dabei helfen, verschiedene Farbstoffklassen oder verschiedene Farbstoffderivate einer Farbstoffklasse bezüglich dieser Charakteristik miteinander zu vergleichen. Die Ergebnisse sind in den folgenden Tabellen sortiert nach Stoffgruppen zusammengefasst: […]

S. enterica = test: Bacteria test following modified ISO 22196, photodynamic effect of different photocatalysts in the SolGel coating on S. enterica; assay type: cell-based; conditions: Rezeptur 4 nach Beispiel 5 on Melamin, 4 h
Description: Die Bestimmung der antimikrobiellen Aktivität erfolgte nach einer modifizierten Version der ISO 22196:2011-08 ("Messung von antibakterieller Aktivität auf Kunststoff- und anderen porenfreien Oberflächen", Ausgabedatum: 2011-08).
Bei der Testdurchführung wurde ein dünner Flüssigkeitsfilm, in dem die Bakterien enthalten sind (1,25 x 10^4 /cm2), direkt auf die Probekörper (2,5 cm x 2,5 cm) aufgebracht. Direkt nach Beimpfung wurden von der Nullprobe die Bakterien von den Probekörperoberflächen mittels Ultraschall und Vortexen abgelöst und die Keimzahl (KBE (engl. CFU), Kolonie-bildende Einheit) bestimmt (t0-Wert). Ein weiterer Satz Nullproben und antimikrobiell ausgestatteter Proben wurden mit Bakterien im Flüssigkeitsfilm bei Raumtemperatur inkubiert. Nach 4 h wurden überlebende Bakterien von den Probekörperoberflächen mittels Ultraschall und Vortexen abgelöst und die Keimzahl bestimmt (t4-Wert).
Im Unterschied zu der in der ISO 22196:2011-08 beschriebenen Methode wurde das Inokulum nicht mit einer Folie abgedeckt und die Inkubationszeit von 24 auf 4 Stunden reduziert. Weiterhin wurden die Platten der Proben 3 und 4 mit Licht mit einer Intensität von 300 µW/cm2 belichtet.
Der Bakterientest wurde in Anlehnung an ISO 22196 nach oben beschriebener Methode durchgeführt. Die Ergebnisse sind Tabelle 57a bis 57b dargestellt. Tabelle 57a: Photodynamische Wirkung verschiedener Katalysatoren in der SolGel Beschichtung gegen S.aureus

## CC(C)(O)c1cc[n+](CC2=Cc3cccc4cccc(c34)C2=O)cc1 [S-25a]
[1]
  Verlust durch Auswaschen: 8%
S. enterica; 300 µW/cm2
  S. enterica Log10 Reduktion Probe: 2,5±0,4
S. enterica; dark
  S. enterica Log10 Reduktion Dunkelkontrolle: 0,0±0,1
